The record followed here is BindingDB's records for doi:10.1016/j.ejmech.2017.05.048 (University of Auckland, 2017).

As a reminder, the IC50 is the concentration that inhibits the measured activity by half. Read a high IC50 as a need for much substance.

A short description of this assay: Inhibition of perforin (unknown origin)-mediated 51Cr-labelled human Jurkat cell lysis preincubated with protein for 30 mins followed by cell addition measured after 4 hrs by gamma counting method.

`CN1Cc2cc(-c3ccc(-c4cc(NS(=O)(=O)c5ccccn5)ccc4F)s3)ccc2C1=O` had an IC50 greater than 20 µM.
`CN1Cc2cc(-c3ccc(-c4cccc(S(=O)(=O)Nc5ccccn5)c4)s3)ccc2C1=O` yielded a half-inhibitory concentration (IC50) of 8.92 µM.
The result for `CN1Cc2cc(-c3ccc(-c4cccc(NS(=O)(=O)c5ccc(F)cc5F)c4)s3)ccc2C1=O` reads 5.74 µM; that for `CN1Cc2cc(-c3ccc(-c4cncc(NC(=O)c5ccc(F)cc5F)c4)s3)ccc2C1=O`, greater than 20 µM; that for `CN1Cc2cc(-c3ccc(-c4cncc(NS(=O)(=O)c5cccc(F)c5)c4)s3)ccc2C1=O`, 20 µM.
The result for `CN1Cc2cc(-c3ccc(-c4cncc(NS(=O)(=O)c5ccc(S(C)(=O)=O)cc5)c4)s3)ccc2C1=O` reads greater than 20 µM.
Then `CN1Cc2cc(-c3ccc(-c4cncc(NS(=O)(=O)c5cccs5)c4)s3)ccc2C1=O`, with 1.07 µM; and `CN1Cc2cc(-c3ccc(-c4cncc(NS(=O)(=O)c5ccc(Br)cc5)c4)s3)ccc2C1=O`, with 8.77 µM; and `CN1Cc2cc(-c3ccc(-c4cncc(NS(=O)(=O)c5cc(C(F)(F)F)cc(C(F)(F)F)c5)c4)s3)ccc2C1=O`, with greater than 20 µM.
Turning to `CN1Cc2cc(-c3ccc(-c4cncc(NS(=O)(=O)c5ccc(F)c(C(F)(F)F)c5)c4)s3)ccc2C1=O`, the IC50 was found to be 3.75 µM.
Then `CN1Cc2cc(-c3ccc(-c4cncc(NS(=O)(=O)c5ccsc5)c4)s3)ccc2C1=O`, with 12.5 µM.
Then `CN1Cc2cc(-c3ccc(-c4cncc(NS(=O)(=O)c5ccc([N+](=O)[O-])cc5)c4)s3)ccc2C1=O`, with 2.74 µM.
The result for `CN1Cc2cc(-c3ccc(-c4ccc(NS(=O)(=O)c5ccc(F)cc5F)nc4)s3)ccc2C1=O` reads greater than 20 µM; that for `CN1Cc2cc(-c3ccc(-c4cncc(NS(=O)(=O)c5ccccc5[N+](=O)[O-])c4)s3)ccc2C1=O`, 6.65 µM; that for `COc1cccc(S(=O)(=O)Nc2cncc(-c3ccc(-c4ccc5c(c4)CN(C)C5=O)s3)c2)c1`, 2.56 µM.
As for `CN1Cc2cc(-c3ccc(-c4cncc(NS(=O)(=O)c5ccccc5C(F)(F)F)c4)s3)ccc2C1=O`, half-maximal inhibition (IC50) required 1.45 µM. Compared with the last molecule, the IC50 is about 1.8-fold lower.
The molecule `CN1Cc2cc(-c3ccc(-c4cncc(NS(=O)(=O)c5cccc(Cl)c5)c4)s3)ccc2C1=O` came in with an IC50 of 2.42 µM.
Then `CN1Cc2cc(-c3ccc(-c4cncc(NS(=O)(=O)c5c(F)cc(F)cc5F)c4)s3)ccc2C1=O`, with 1.76 µM; and `Cc1ccc(NS(=O)(=O)c2ccccn2)cc1-c1ccc(-c2ccc3c(c2)CN(C)C3=O)s1`, with 15.4 µM; and `CN1Cc2cc(-c3ccc(-c4cncc(NS(=O)(=O)c5ccc(Br)cc5Br)c4)s3)ccc2C1=O`, with 2.87 µM.
Then `CN1Cc2cc(-c3ccc(-c4cnc(F)c(NS(=O)(=O)c5ccc(F)cc5F)c4)s3)ccc2C1=O`, with 1.99 µM; and `CN1Cc2cc(-c3ccc(-c4cncc(NS(=O)(=O)c5cccc(OC(F)(F)F)c5)c4)s3)ccc2C1=O`, with 1.42 µM.
Then `CN1Cc2cc(-c3ccc(-c4cncc(NS(=O)(=O)c5ccc(F)c(F)c5)c4)s3)ccc2C1=O`, with 18.6 µM; and `CN1Cc2cc(-c3ccc(-c4cncc(NS(=O)(=O)c5ccccn5)c4)s3)ccc2C1=O`, with 1.07 µM; and `CN1Cc2cc(-c3ccc(-c4cncc(NS(=O)(=O)c5cccc(Br)c5)c4)s3)ccc2C1=O`, with 2.11 µM.
The molecule `COC(=O)c1ccccc1S(=O)(=O)Nc1cncc(-c2ccc(-c3ccc4c(c3)CN(C)C4=O)s2)c1` gave an IC50 of 2.9 µM.
Then `Cc1ccc(NS(=O)(=O)c2ccc(F)cc2F)cc1-c1ccc(-c2ccc3c(c2)CN(C)C3=O)s1`, with greater than 20 µM; and `CN1Cc2cc(-c3ccc(-c4cncc(NS(=O)(=O)c5ccc(Cl)cc5Cl)c4)s3)ccc2C1=O`, with 15 µM.
The result for `CN1Cc2cc(-c3ccc(-c4cncc(NS(=O)(=O)c5ccccc5Cl)c4)s3)ccc2C1=O` reads 4.01 µM; that for `CN1Cc2cc(-c3ccc(-c4cncc(NS(=O)(=O)c5ccc(-c6ccno6)s5)c4)s3)ccc2C1=O`, 7.1 µM; that for `CN1Cc2cc(-c3ccc(-c4cncc(NS(=O)(=O)c5ccc(I)cc5)c4)s3)ccc2C1=O`, 5 µM.
Then `CN1Cc2cc(-c3ccc(-c4cncc(S(=O)(=O)Nc5ccc(F)cc5F)c4)s3)ccc2C1=O`, with 2.24 µM; and `CN1Cc2cc(-c3ccc(-c4cncc(NS(=O)(=O)c5ccc(Cl)cc5)c4)s3)ccc2C1=O`, with 5.39 µM; and `CN1Cc2cc(-c3ccc(-c4cnc(F)c(NS(=O)(=O)c5ccccn5)c4)s3)ccc2C1=O`, with 4.1 µM.
In turn, `COc1ccccc1S(=O)(=O)Nc1cncc(-c2ccc(-c3ccc4c(c3)CN(C)C4=O)s2)c1` had an IC50 of 14.8 µM.
For `Cc1ncsc1S(=O)(=O)Nc1cncc(-c2ccc(-c3ccc4c(c3)CN(C)C4=O)s2)c1`, the IC50 came to 11.6 µM.
`COc1ccc(-c2ccc(-c3ccc4c(c3)CN(C)C4=O)s2)cc1S(=O)(=O)Nc1ccccn1` registered an IC50 of 9.68 µM.
For the molecule `COc1ncc(-c2ccc(-c3ccc4c(c3)CN(C)C4=O)s2)cc1NS(=O)(=O)c1ccc(F)cc1F`, the IC50 worked out at 3.56 µM.
Then `CN1Cc2cc(-c3ccc(-c4cncc(NS(=O)(=O)c5cccc(C#N)c5)c4)s3)ccc2C1=O`, with greater than 20 µM; and `CN1Cc2cc(-c3ccc(-c4cncc(NS(=O)(=O)c5cccc(Cl)c5F)c4)s3)ccc2C1=O`, with 13 µM; and `CN1Cc2cc(-c3ccc(-c4cncc(NS(=O)(=O)c5ccccc5Br)c4)s3)ccc2C1=O`, with 2.66 µM.
The result for `CN1Cc2cc(-c3ccc(-c4cnc(Cl)c(NS(=O)(=O)c5ccc(F)cc5F)c4)s3)ccc2C1=O` reads 1.03 µM.
The result for `CN1Cc2cc(-c3ccc(-c4cncc(NS(=O)(=O)c5cc(Br)cc(C(F)(F)F)c5)c4)s3)ccc2C1=O` reads greater than 20 µM.
For the molecule `CN1Cc2cc(-c3ccc(-c4cncc(NS(=O)(=O)c5ccc(Cl)c(Cl)c5)c4)s3)ccc2C1=O`, the IC50 amounted to 1.32 µM.
Then `Cc1cc(C)n(-c2ccc(S(=O)(=O)Nc3cncc(-c4ccc(-c5ccc6c(c5)CN(C)C6=O)s4)c3)cc2)n1`, with 19.1 µM; and `CN1Cc2cc(-c3ccc(-c4cncc(NS(=O)(=O)c5ccc6c(c5)OCCO6)c4)s3)ccc2C1=O`, with greater than 20 µM.
The result for `CN1Cc2cc(-c3ccc(-c4cncc(NS(=O)(=O)c5ccc(C(F)(F)F)cc5)c4)s3)ccc2C1=O` reads greater than 20 µM; that for `COc1ccc(S(=O)(=O)Nc2cncc(-c3ccc(-c4ccc5c(c4)CN(C)C5=O)s3)c2)cc1`, 6.27 µM; that for `CN1Cc2cc(-c3ccc(-c4cncc(NS(=O)(=O)c5ccccc5F)c4)s3)ccc2C1=O`, 2.03 µM.
Molecule `CN1Cc2cc(-c3ccc(-c4cncc(NS(=O)(=O)c5cccc(C(F)(F)F)c5)c4)s3)ccc2C1=O` registered an IC50 of 1.22 µM.
The result for `Cc1ccc(S(=O)(=O)Nc2ccccn2)cc1-c1ccc(-c2ccc3c(c2)CN(C)C3=O)s1` reads greater than 20 µM.
Then `CN1Cc2cc(-c3ccc(-c4cncc(NS(=O)(=O)c5ccc(C#N)cc5)c4)s3)ccc2C1=O`, with 5.17 µM; and `CN1Cc2cc(-c3ccc(-c4cncc(NS(=O)(=O)c5ccc(C(F)(F)F)cc5Cl)c4)s3)ccc2C1=O`, with greater than 20 µM; and `CN1Cc2cc(-c3ccc(-c4cncc(NS(=O)(=O)c5ccccc5)c4)s3)ccc2C1=O`, with 8.46 µM.
As to `CN1Cc2cc(-c3ccc(-c4cncc(NS(=O)(=O)c5ccc(OC(F)(F)F)cc5)c4)s3)ccc2C1=O`, the IC50 was greater than 20 µM.
With `COC(=O)c1ccc(S(=O)(=O)Nc2cncc(-c3ccc(-c4ccc5c(c4)CN(C)C5=O)s3)c2)cc1`, the IC50 stood at 8.16 µM.
Then `CN1Cc2cc(-c3ccc(-c4cncc(NS(=O)(=O)c5cccnc5)c4)s3)ccc2C1=O`, with 15.1 µM; and `CN1Cc2cc(-c3ccc(-c4cncc(NS(=O)(=O)c5ccccc5C#N)c4)s3)ccc2C1=O`, with 9.17 µM.
The result for `CN1Cc2cc(-c3ccc(-c4cncc(NS(=O)(=O)c5ccccc5S(C)(=O)=O)c4)s3)ccc2C1=O` reads 6.8 µM; that for `CN1Cc2cc(-c3ccc(-c4cncc(NS(=O)(=O)c5ccccc5OC(F)(F)F)c4)s3)ccc2C1=O`, 17.7 µM.
Then `CN1Cc2cc(-c3ccc(-c4cncc(NS(=O)(=O)c5ccc(C(=O)O)cc5)c4)s3)ccc2C1=O`, with 0.75 µM; and `Cc1ccc(S(=O)(=O)Nc2cncc(-c3ccc(-c4ccc5c(c4)CN(C)C5=O)s3)c2)cc1Cl`, with 8.14 µM; and `CN1Cc2cc(-c3ccc(-c4cncc(NS(=O)(=O)c5ccc(-c6cnco6)cc5)c4)s3)ccc2C1=O`, with 3.05 µM.
As for `CN1Cc2cc(-c3ccc(-c4cncc(N(C)S(=O)(=O)c5ccc(F)cc5F)c4)s3)ccc2C1=O`, the IC50 came out at 16.1 µM.
`CN1Cc2cc(-c3ccc(-c4ccc(OC(F)(F)F)c(NS(=O)(=O)c5ccccn5)c4)s3)ccc2C1=O` returned a concentration for half-maximal inhibition (IC50) greater than 20 µM.
The result for `CCOC(=O)c1ccc(S(=O)(=O)Nc2cncc(-c3ccc(-c4ccc5c(c4)CN(C)C5=O)s3)c2)cc1` reads 19.4 µM; that for `CN1Cc2cc(-c3ccc(-c4ccnc(NS(=O)(=O)c5ccc(F)cc5F)c4)s3)ccc2C1=O`, 4.7 µM.
The result for `COC(=O)c1cccc(S(=O)(=O)Nc2cncc(-c3ccc(-c4ccc5c(c4)CN(C)C5=O)s3)c2)c1` reads 7.77 µM; that for `CN1Cc2cc(-c3ccc(-c4cncc(NS(=O)(=O)c5ccc(F)cc5)c4)s3)ccc2C1=O`, 9.65 µM; that for `Cc1cc(F)ccc1S(=O)(=O)Nc1cncc(-c2ccc(-c3ccc4c(c3)CN(C)C4=O)s2)c1`, 5.53 µM.
